Question: With `O=C1Oc2ccc(F)cc2-c2c(c3c4ccccc4c(=O)c3c3c2c(=O)c2ccccc23)C(=O)c2ccccc21` [9-fluoro-dibenzo[b,g]indeno[1′,2′:3,4]fluoreno-[1,2-d]oxonine-5,11,16,21-tetraone] as the molecule, how does the melting point read?
Answer: The melting point was 288 to 289 °C.

Source: patent publication US11883379B1, “9-flouro-dibenzo[B,G]indeno[1′, 2′:3,4]fluoreno-[1,2-D]oxonine-5, 11, 16,21-tetraone as an antimicrobial agent” (KING FAISAL UNIVERSITY, priority 2023, dated 2024)
